Tests used:
human VDR = target: T1, human VDR (Homo sapiens, UniProt P11473); test: Vitamin D receptor activation (VDR), transcription activation assay in COS cells; type: cell-based; conditions: for EC50: COS cells cotransfected with human VDR and VDRE3-luciferase reporter, read-out: VDR act. (ED50, nanomolar); for HTD/VDR: ratio HTDsc (mouse, μg/kg) / VDR ED50 (nanomolar); for TI shift (HTD/VDR of test compound divided by HTD/VDR of calcitriol): vs calcitriol
T1 construct: expressed in transfected cells; host or cells: COS cells, human VDR in pSG5
T1 sequence (P11473 1-427): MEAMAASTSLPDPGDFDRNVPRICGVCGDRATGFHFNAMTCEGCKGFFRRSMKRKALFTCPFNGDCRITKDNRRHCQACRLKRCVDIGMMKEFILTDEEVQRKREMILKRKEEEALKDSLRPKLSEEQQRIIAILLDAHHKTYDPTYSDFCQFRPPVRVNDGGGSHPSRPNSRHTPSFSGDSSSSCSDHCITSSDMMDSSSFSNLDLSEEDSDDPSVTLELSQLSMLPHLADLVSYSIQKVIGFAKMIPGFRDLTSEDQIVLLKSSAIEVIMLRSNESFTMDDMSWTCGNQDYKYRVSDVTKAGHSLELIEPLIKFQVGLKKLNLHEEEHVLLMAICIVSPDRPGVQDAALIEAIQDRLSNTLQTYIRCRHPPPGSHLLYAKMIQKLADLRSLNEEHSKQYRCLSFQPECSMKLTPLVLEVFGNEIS
Text: 2. Vitamin D receptor activation (VDR)
In order to measure the activation of the vitamin D receptor (VDR) by vitamin D analogs in cells a transcription activation assay was used. COS cells were cotransfected with the human VDR (expressed in pSG5) and a reporter gene containing three response elements (VDRE3) from the rat osteocalcine gene, the thymidine kinase basal promoter, and the luciferase reporter gene, respectively.
TI shift: shift in "therapeutic index", defined as the ratio HTD/VDR of
the test compound divided by the ratio HTD/VDR of calcitriol. These

[1] = Calcium liability (tolerance test in mice); conditions: mouse, in vivo, sc, daily s.c. for 4 consecutive days, dose without weight loss / with zero weight gain, read-out: HTD sc, mouse (highest tolerated subcutaneous dose)
Text: 1. Calcium liability (tolerance test in mice):
This test gives a global picture of calcemic liability. Profound changes in calcium homeostasis strongly affect the weight development of the animals. This parameter was used as a primary test for tolerance. Mice (25-30 g body weight) received daily subcutaneous administrations of the vitamin D derivative for 4 consecutive days. Body weight was registered just before and at the end of a […] treatment period. The "highest tolerated dose" (HTDsc) in mice is the dose which results in zero weight gain during this treatment period.
HTDsc: highest tolerated subcutaneous dose (μg/kg) without weight loss

[2] = test system: Epidermal proliferation in minipigs; test: The pig model: epidermal proliferation in minipigs; conditions: for TI (ratio Calc./Eff.): calcemic dose / effective dose, 10080 min; for Calcemic dose / Effective dose: seven days; for Effective dose: dose that increases the normal LI at least 50%
[3] = The mouse model: epidermal thickening (acanthosis) in hairless mice; conditions: mouse, in vivo, po
[4] = test system: Epidermal thickening (acanthosis) in hairless mice; test: as above; conditions: for ED50: Mus musculus, po, read-out: ED50: dose causing halfmaximal epidermal thickening; for ratio (TI) HTD/ED50 / TI shift (HTD/ED50 of test compound divided by HTD/ED50 of calcitriol): hairless mice, oral; for ratio (TI) HTD/ED50: HTDpo/ED50; for TI shift (HTD/ED50 of test compound divided by HTD/ED50 of calcitriol): vs calcitriol

Row | Compound | EC50 (human VDR) | HTD/VDR (human VDR) | TI shift (HTD/VDR of test compound divided by HTD/VDR of calcitriol) (human VDR) | MTD [1] | TI (ratio Calc./Eff.) [2] | Calcemic dose [2] | Effective dose [2] | MTD [3] | ED50 [4] | ratio (TI) HTD/ED50 [4] | TI shift (HTD/ED50 of test compound divided by HTD/ED50 of calcitriol) [4] | hyperproliferation (in words) ([2]; up to 9 times the dose that induces hypercalcemia)
1 | C=C1/C(=C\C=C2/CCC[C@]3(C)[C@@H]([C@H](C)CNC(=O)CC(C)(O)C(F)(F)F)CC[C@@H]23)C[C@@H](O)C[C@@H]1O (mixture of isomers) [D, 1:1 Mixture of [(5Z,7E)--(R)-- and (S)--N--[(1S,3R,20S)-1,3-dihydroxy-20-methyl-9,10-seco-pregna-5,7,10(19)-trien-21-yl]-4,4,4-trifluoro-3-hydroxy-3-methyl-butyramide] | 1.6 nM | 6.3 | 33 | 10 µg/kg | – | – | – | – | – | – | – | –
2 | C=C1/C(=C/C=C2\CCC[C@]3(C)[C@@H]([C@H](C)CNC(=O)CC(C)(O)C(F)(F)F)CC[C@@H]23)C[C@@H](O)C[C@@H]1O (mixture of isomers) [I, 1:1 Mixture of --[(5E,7E)--(R)-- and --(S)-4,4,4-trifluoro-3-hydroxy-N--[(1S,3R,20S)-1,3-dihydroxy-20-methyl-9,10-seco-pregna-5,7,10(19)-trien-21-yl]-3-methyl-butyramide] | 40 nM | 3.3 | 17 | 130 µg/kg | – | – | – | – | – | – | – | –
3 | C[C@H](CNC(=O)CC(C)(O)C(F)(F)F)[C@H]1CC[C@H]2/C(=C/C=C3C[C@@H](O)C[C@H](O)C3)CCC[C@]12C (mixture of isomers) [compound B, 1:1 Mixture of (E)--(R)-- and (S)--N--[(1R,3R,20S)-1,3-dihydroxy-20-methyl-19-nor-9,10-seco-pregna-5,7-dien-21-yl]-4,4,4-trifluoro-3-hydroxy-20-methyl-butyramide] | 1.7 nM | 26.5 | 139 | 45 µg/kg | 10 | 5 µg/kg | 0.5 µg/kg | 20 µg/kg | 80 µg/kg | 0.25 | 125 | –
4 | C[C@@H](CNC(=O)CC(C)(O)C(F)(F)F)[C@H]1CC[C@H]2/C(=C/C=C3C[C@@H](O)C[C@H](O)C3)CCC[C@]12C (mixture of isomers) [compound E, 1:1 Mixture of (E)--(R)-- and (S)--N--[(1R,3R,20R)-1,3-dihydroxy-20-methyl-19-nor-9,10-seco-pregna-5,7-dien-21-yl]-4,4,4-trifluoro-3-hydroxy-3-methyl-butyramide] | 0.35 nM | 2.9 | 15 | 1 µg/kg | – | – | – | – | – | – | – | –
5 | C[C@H](CNC(=O)CC(O)(C(F)(F)F)C(F)(F)F)[C@H]1CC[C@H]2/C(=C/C=C3C[C@@H](O)C[C@H](O)C3)CCC[C@]12C [A, (E)--(1R,3R,20S)--N-(1,3-Dihydroxy-20-methyl-19-nor-9,10-seco-pregna-5,7-dien-21-yl)-4,4,4-trifluoro-3-hydroxy-3-trifluoromethyl-butyramide] | 0.47 nM | 6.4 | 34 | 3 µg/kg | – | – | – | – | – | – | – | –
6 | C[C@H](CNC(=O)C(C)(C)O)[C@H]1CC[C@H]2/C(=C/C=C3C[C@@H](O)C[C@H](O)C3)CCC[C@]12C [C, (E)--(1R,3R,20S)--N-(1,3-Dihydroxy-20-methyl-19-nor-9,10-seco-pregna-5,7-dien-21-yl)-2-hydroxy-2-methyl-propionamide] | 6.4 nM | 62.5 | 329 | 400 µg/kg | – | – | – | – | – | – | – | –
7 | C=C1/C(=C\C=C2/CCC[C@]3(C)[C@@H]([C@H](C)CCCC(C)(C)O)CC[C@@H]23)C[C@@H](O)C[C@@H]1O [Calcitriol, reference compound] | – | – | – | – | – | 3 µg/kg | > 22.5 µg/kg | 1 µg/kg | 500 µg/kg | – | – | did not induce hyperproliferation even at highly toxic does (9 times the dose that induces hypercalcemia)
8 | C[C@H](CNC(=O)C[C@@](C)(O)C(F)(F)F)[C@H]1CCC[C@H]2/C(=C/C=C3C[C@@H](O)C[C@H](O)C3)CCC[C@]12C [F, (E)--(R)--N--[(1R,3R,20S)-1,3-Dihydroxy-17a,20a-dihomo-19-nor-9,10-seco-pregna-5,7-dien-21-yl]-4,4,4-trifluoro-3-hydroxy-3-methyl-butyramide] | 0.6 nM | 8.3 | 44 | 5 µg/kg | – | – | – | – | – | – | – | –
9 | C[C@H](CNC(=O)C[C@](C)(O)C(F)(F)F)[C@H]1CCC[C@H]2/C(=C/C=C3C[C@@H](O)C[C@H](O)C3)CCC[C@]12C [G, (E)--(S)--N--[(1R,3R,20S)-1,3-Dihydroxy-17a,20a-dihomo-19-nor-9,10-seco-pregna-5,7-dien-21-yl]-4,4,4-trifluoro-3-hydroxy-3-methyl-butyramide] | 0.18 nM | 25 | 132 | 4.5 µg/kg | – | – | – | – | – | – | – | –
10 | C[C@H](CNC(=O)CC(O)(C(F)(F)F)C(F)(F)F)[C@H]1CCC[C@H]2/C(=C/C=C3C[C@@H](O)C[C@H](O)C3)CCC[C@]12C [H, (E)--N--[(1R,3R,20S)-1,3-Dihydroxy-17a,20a-dihomo-19-nor-9,10-seco-pregna-5,7-dien-21-yl]-4,4,4-trifluoro-3-trifluoromethyl-3-hydroxy-butyramide] | 0.5 nM | 4.6 | 24 | 2.3 µg/kg | – | – | – | – | – | – | – | –
11 | C[C@H](CNC(=O)C[C@@](C)(O)C(F)(F)F)[C@H]1CC[C@H]2/C(=C/C=C3C[C@@H](O)C[C@H](O)C3)CCC[C@]12C [compound J, E--(R)--N--[(1R,3R,20S)-1,3-Dihydroxy-20-methyl-19-nor-9,10-seco-pregna-5,7-dien-21-yl]-4,4,4-trifluoro-3-hydroxy-3-methyl-butyramide] | 2.1 nM | 10.5 | 55 | 22 µg/kg | 29 | 5 µg/kg | 0.17 µg/kg | 8 µg/kg | 50 µg/kg | 0.16 | 80 | –

Reference: patent US6043385A, “Vitamin D derivatives” (priority 1997, dated 2000)
